Measurements taken from PMC11507377, “Intricate Evolution of Multifunctional Lipoxygenase in Red Algae” (International Journal of Molecular Sciences, 2024).

How the values were obtained:
SvLOX = biological target: T1, SvLOX (Shewanella violacea, UniProt D4ZL63); assay: HPLC-MS and GC-MS of products; assay type: biochemical; conditions: 100 μM ARA, 0.1 mg/mL enzyme, pH 8.0, 20 °C, 1 min (HPLC-MS) or 15 min (GC-MS)
T1 construct: gene SVI_2441; SRPBCC domain + LOX domain
T1 sequence (D4ZL63 1-839): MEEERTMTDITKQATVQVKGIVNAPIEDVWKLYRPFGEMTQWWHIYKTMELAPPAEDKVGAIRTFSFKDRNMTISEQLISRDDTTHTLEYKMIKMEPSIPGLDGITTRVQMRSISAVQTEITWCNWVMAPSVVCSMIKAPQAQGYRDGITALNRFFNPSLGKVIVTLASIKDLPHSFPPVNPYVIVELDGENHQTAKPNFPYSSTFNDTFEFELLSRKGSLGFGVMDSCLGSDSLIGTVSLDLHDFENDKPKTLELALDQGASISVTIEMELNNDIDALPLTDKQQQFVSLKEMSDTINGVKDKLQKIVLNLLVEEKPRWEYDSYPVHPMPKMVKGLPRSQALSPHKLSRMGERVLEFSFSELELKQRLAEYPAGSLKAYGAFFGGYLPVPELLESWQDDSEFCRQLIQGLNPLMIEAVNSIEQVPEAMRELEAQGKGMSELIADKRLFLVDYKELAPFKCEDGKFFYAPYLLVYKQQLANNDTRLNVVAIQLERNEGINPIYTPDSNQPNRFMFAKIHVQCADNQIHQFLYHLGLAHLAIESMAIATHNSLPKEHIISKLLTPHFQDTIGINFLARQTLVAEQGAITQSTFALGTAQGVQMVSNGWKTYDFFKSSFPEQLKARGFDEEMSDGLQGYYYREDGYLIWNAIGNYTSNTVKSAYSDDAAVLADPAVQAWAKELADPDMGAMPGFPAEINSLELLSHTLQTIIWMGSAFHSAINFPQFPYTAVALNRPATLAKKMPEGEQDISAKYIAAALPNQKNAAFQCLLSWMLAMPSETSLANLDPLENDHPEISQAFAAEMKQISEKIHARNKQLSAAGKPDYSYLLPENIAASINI

PhLOX [1] = biological target: T2, PhLOX (Pyropia haitanensis, UniProt J7JU42, F826L); conditions: 100 μM ALA, 0.1 mg/mL enzyme, pH 8.0, 20 °C, 15 min
T2 construct: gene lox
T2 sequence (J7JU42 entry or part of it F826L): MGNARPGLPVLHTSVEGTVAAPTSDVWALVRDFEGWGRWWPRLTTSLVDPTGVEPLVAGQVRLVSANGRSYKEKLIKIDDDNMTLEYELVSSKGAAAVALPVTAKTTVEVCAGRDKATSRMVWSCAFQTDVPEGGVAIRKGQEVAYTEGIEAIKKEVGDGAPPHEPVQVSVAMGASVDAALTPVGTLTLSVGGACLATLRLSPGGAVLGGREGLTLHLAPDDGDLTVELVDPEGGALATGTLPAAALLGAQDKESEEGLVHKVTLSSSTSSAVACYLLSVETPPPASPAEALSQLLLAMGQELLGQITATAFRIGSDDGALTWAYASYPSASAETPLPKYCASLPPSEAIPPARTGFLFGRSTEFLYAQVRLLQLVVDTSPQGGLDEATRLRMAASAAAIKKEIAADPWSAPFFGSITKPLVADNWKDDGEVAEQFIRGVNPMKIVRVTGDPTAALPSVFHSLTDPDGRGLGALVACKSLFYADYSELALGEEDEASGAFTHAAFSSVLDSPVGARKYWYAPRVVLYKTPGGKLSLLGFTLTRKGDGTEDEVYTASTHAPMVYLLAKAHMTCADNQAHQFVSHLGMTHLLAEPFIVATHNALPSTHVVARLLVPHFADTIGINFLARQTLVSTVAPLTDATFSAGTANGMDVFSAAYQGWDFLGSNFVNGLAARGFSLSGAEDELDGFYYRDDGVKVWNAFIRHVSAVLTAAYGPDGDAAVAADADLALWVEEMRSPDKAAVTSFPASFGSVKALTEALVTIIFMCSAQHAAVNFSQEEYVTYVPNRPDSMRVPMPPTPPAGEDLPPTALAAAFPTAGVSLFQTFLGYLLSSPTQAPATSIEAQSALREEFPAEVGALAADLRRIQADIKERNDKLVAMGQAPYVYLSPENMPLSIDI

PhLOX [2] = biological target: T3, PhLOX (Pyropia haitanensis, UniProt J7JU42, F642V/F826L); conditions: 100 μM ALA, 0.1 mg/mL enzyme, pH 8.0, 20 °C, 15 min
T3 construct: gene lox
T3 sequence (J7JU42 entry or part of it F642V/F826L): as the sequence (J7JU42 entry or part of it F826L) above, with F642V counted along it

SMILES | HPLC-MS and GC-MS of products (SvLOX) | HPLC-MS of products (PhLOX [1]) | HPLC-MS of products (PhLOX [2])
CCCCC/C=C\C/C=C\C/C=C\C/C=C\CCCC(=O)O [arachidonic acid] | the incubation of ARA with SvLOX gave 12-hydroperoxy/hydroxy eicosatetraenoic acids |  | 
CC/C=C\C/C=C\C/C=C\CCCCCCCC(=O)O [α-linolenic acid] |  | (ALA) was incubated with the F826L mutant of PhLOX, much more 9-HpOTE was formed | When ALA was incubated with the F642V-F826L double mutant of PhLOX, 13-HpOTE was the dominating product
